In brackets after ≈: the same amount, converted by molar mass. Like-named read-outs stand apart in the source and are kept apart here.
How the values were obtained:
[1] = test system: S. cerevisiae YEM-1 (CDR1 introduced); test: microbe, parasite or virus in culture; assay type: cell-based; settings: Saccharomyces cerevisiae, read-out: MIC Mb alone
[2] = target: pCgCDR (ABC) efflux pump in S. cerevisiae YEM-39 (Candida glabrata, UniProt Q6FK23); test: cell-based; assay type: cell-based, C. glabrata
Chain of pCgCDR (ABC) efflux pump in S. cerevisiae YEM-39 (Q6FK23 whole entry): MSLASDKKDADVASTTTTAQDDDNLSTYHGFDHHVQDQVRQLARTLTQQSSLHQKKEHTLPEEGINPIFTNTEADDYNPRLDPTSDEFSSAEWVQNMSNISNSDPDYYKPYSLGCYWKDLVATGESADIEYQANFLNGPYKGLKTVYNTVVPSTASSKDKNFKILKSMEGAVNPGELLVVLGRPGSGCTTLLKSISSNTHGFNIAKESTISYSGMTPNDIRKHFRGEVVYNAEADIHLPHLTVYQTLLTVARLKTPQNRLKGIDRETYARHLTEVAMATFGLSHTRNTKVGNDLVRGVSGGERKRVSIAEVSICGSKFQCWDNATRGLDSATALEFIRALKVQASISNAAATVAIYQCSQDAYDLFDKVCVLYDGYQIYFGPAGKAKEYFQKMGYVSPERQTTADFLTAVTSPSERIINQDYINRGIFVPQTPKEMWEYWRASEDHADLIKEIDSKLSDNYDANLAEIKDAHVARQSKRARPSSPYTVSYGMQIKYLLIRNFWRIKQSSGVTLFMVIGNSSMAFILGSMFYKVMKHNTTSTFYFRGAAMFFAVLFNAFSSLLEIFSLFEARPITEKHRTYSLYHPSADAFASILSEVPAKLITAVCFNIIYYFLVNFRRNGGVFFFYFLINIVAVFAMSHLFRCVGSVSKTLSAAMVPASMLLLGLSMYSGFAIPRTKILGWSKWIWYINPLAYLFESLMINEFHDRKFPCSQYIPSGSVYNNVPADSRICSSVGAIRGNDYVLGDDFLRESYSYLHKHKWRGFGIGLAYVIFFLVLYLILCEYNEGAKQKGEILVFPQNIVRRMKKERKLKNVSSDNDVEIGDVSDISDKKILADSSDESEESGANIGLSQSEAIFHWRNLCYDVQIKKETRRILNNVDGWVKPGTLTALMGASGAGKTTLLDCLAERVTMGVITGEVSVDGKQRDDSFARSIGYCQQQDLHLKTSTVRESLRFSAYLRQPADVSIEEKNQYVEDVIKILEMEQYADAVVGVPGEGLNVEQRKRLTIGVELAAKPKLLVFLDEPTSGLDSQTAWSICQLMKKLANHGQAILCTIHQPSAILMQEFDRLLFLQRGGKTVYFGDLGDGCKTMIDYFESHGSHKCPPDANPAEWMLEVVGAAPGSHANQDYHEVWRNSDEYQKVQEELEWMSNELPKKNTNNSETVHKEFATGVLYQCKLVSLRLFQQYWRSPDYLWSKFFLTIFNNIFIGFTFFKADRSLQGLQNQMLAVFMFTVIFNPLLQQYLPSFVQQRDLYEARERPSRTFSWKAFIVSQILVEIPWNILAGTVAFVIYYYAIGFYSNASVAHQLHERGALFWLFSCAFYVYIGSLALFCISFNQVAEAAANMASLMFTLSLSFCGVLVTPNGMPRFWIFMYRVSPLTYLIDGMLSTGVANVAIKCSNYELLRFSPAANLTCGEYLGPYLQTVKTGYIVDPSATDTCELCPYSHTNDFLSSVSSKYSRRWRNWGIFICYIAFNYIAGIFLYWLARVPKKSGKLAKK

[3] = test system: pCgBEN (MF) efflux pump in S. cerevisiae YEM-40; assay type: cell-based, C. glabrata; settings: YEM-40 pCgBEN; fluconazole fixed at FLUhalf 2.8
[4] = test system: YEM 13 C. albicans BEN up; test: microbe, parasite or virus in culture; assay type: cell-based; settings: YEM 13, 24 hrs, 80% inhibition; for MIC of compound in the presence of fluconazole (+): 1/8 × MIC of fluconazole
[5] = test system: C. albicans YEM-13 (BEN); assay type: cell-based
[6] = test system: YEM 17 C. glabrata, CgCDR up; assay type: cell-based; settings: 24 hrs, 80% inhibition; for MIC of compound in the presence of fluconazole (+): 1/8 × MIC of fluconazole
[7] = test system: Aspergillus fumigatus; test: FEPI MICs in combination with 1/4 the azole's MIC (Table 12); assay type: cell-based; settings: for FEPI MIC with itraconazole, 60% Inh / FEPI MIC with itraconazole, 80% Inh: itraconazole 0.063 μg/ml (1/4 MIC); for FEPI MIC with itraconazole, 60% Inh / FEPI MIC with ketoconazole, 60% Inh: 60% inhibition; for FEPI MIC with itraconazole, 80% Inh / FEPI MIC with ketoconazole, 80% Inh / FEPI MIC (alone): 80% inhibition; for FEPI MIC with ketoconazole, 60% Inh / FEPI MIC with ketoconazole, 80% Inh: ketoconazole 4 μg/ml (1/4 MIC); for FEPI MIC (alone): no azole, 35° C., CM Broth
Procedure: The combinations were tested against a series of Candida strain with known expression of efflux pumps or with complete deletion of all known pumps and Aspergillus fumigatus. Results are reported as minimum inhibitory concentration (MIC) of […] in the presence or absence of […]. A total of 27 distinct milbemycins were studied.

[8] = test system: YEM 24 C. albicans ΔCDR1, ΔCDR2; test: microbe, parasite or virus in culture; assay type: cell-based; settings: YEM 24, 24 hrs, 80% inhibition; for MIC of compound in the presence of fluconazole (+): 1/8 × MIC of fluconazole
[9] = test system: YEM 15 C. albicans, CDR1CDR2 up; test: microbe, parasite or virus in culture; assay type: cell-based; settings: YEM 15, 24 hrs, 80% inhibition; for MIC of compound in the presence of fluconazole (+): 1/8 × MIC of fluconazole
[10] = target: pCDR2 (ABC) efflux pump in S. cerevisiae YEM-37 (Candida albicans, UniProt P78595); test: cell-based; assay type: cell-based, C. albicans
Chain of pCDR2 (ABC) efflux pump in S. cerevisiae YEM-37 (P78595 whole entry): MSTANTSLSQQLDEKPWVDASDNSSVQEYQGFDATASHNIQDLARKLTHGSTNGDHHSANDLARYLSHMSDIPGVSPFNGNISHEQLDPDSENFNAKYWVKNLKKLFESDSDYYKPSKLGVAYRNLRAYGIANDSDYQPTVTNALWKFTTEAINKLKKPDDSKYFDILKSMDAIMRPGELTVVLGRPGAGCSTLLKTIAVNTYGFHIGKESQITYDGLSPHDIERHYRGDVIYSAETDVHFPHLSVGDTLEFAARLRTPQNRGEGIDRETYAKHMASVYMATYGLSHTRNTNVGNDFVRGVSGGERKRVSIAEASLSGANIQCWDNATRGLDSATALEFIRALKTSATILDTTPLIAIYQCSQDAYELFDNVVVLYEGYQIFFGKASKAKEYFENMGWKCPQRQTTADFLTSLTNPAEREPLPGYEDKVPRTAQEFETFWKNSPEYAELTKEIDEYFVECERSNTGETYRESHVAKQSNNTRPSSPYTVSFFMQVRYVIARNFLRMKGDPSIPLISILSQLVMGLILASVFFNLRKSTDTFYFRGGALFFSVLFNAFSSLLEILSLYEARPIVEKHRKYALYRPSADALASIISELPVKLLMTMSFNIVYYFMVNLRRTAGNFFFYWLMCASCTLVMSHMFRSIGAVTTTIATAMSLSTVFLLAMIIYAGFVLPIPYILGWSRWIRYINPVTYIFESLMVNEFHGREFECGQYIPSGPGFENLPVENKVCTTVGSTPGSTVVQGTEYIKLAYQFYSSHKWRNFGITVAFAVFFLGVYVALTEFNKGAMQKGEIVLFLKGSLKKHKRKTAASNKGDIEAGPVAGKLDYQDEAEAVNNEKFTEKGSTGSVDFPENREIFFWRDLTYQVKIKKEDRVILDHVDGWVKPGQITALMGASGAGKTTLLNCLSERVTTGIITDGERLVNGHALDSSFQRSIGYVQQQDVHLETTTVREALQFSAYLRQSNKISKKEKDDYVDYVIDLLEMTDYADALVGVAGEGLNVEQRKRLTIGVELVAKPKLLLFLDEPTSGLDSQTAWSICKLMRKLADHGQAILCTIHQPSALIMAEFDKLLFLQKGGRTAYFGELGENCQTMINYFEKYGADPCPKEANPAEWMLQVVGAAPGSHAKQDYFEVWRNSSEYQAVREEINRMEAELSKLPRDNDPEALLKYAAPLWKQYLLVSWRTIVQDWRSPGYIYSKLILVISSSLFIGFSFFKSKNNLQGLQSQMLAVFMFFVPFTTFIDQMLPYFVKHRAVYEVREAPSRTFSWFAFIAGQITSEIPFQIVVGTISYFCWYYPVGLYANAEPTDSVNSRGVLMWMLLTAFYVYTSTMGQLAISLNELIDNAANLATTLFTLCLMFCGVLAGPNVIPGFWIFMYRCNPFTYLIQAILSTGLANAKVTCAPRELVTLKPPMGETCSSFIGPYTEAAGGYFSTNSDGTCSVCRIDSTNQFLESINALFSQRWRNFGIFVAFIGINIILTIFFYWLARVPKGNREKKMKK

[11] = test system: YEM 30 C. albicans wt; test: FEPI MIC with/without 1/8 fluconazole MIC at 24 hrs (Table 11); assay type: cell-based; settings: for MIC of compound in the absence of fluconazole (−): YEM 30, 24 hrs, 80% inhibition
[12] = test system: YEM 27 C. albicans ΔCDR1ΔCDR2 ΔBENΔFLU1; test: microbe, parasite or virus in culture; assay type: cell-based; settings: YEM 27, 24 hrs, 80% inhibition; for MIC of compound in the presence of fluconazole (+): 1/8 × MIC of fluconazole
[13] = Cytotoxicity TC50 in K-562; assay type: cell-based; settings: human, k-562 cells; compound alone
[14] = target: pCDRI (ABC) efflux pump in S. cerevisiae YEM-1 (Candida albicans, UniProt P43071); test: cell-based; assay type: cell-based, C. albicans
Chain of pCDRI (ABC) efflux pump in S. cerevisiae YEM-1 (P43071 whole entry): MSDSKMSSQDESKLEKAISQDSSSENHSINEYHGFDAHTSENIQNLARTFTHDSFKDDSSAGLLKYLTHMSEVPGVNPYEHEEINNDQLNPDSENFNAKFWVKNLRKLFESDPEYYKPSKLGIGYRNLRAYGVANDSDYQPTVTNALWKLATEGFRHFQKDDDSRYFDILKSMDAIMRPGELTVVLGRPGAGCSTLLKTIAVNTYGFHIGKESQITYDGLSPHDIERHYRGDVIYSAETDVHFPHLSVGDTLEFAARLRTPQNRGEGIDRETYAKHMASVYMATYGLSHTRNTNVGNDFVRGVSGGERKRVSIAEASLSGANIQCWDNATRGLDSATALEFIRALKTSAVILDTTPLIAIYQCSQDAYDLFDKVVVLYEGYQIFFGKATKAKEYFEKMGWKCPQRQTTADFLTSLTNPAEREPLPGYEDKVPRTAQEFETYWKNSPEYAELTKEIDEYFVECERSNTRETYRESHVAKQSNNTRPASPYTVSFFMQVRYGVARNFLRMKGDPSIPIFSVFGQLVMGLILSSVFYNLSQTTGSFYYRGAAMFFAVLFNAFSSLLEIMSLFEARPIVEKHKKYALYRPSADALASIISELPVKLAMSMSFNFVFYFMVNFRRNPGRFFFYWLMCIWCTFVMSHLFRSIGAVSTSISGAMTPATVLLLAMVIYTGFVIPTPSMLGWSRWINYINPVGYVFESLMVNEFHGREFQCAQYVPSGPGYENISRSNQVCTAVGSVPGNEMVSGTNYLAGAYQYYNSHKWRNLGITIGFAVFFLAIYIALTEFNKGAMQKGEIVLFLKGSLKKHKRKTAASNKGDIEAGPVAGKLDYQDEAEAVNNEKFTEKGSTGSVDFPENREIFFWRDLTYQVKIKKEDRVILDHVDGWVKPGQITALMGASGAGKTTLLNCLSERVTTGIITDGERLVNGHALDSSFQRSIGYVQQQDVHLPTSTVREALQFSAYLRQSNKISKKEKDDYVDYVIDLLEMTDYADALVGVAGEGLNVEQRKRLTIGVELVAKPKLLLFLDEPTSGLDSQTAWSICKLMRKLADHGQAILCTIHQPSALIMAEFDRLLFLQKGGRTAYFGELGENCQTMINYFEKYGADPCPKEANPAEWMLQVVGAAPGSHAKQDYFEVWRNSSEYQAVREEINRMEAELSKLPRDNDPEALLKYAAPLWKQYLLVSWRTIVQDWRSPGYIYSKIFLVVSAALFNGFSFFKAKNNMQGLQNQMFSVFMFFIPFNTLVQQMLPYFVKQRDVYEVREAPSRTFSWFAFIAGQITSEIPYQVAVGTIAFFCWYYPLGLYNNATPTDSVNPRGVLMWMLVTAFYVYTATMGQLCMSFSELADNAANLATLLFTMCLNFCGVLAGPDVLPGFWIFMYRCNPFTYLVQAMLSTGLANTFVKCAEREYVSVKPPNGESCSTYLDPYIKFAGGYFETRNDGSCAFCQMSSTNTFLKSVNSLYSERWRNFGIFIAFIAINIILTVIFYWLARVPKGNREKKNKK

[15] = target: CDR1 efflux pump (Candida albicans, UniProt P43071); test: Follow-up evaluation of screening hit, efflux pump inhibition; settings: follow-up evaluation of screen hit
Procedure: An exemplary screen uses C. albicans (e.g., ATCC10231) grown in YPD medium (medium described in “Guide to Yeast Genetics and Molecular Biology”, in Methods in Enzymolopy, vol. 194, pp.13, 1991,; Academic Press; Ed. C. Guthrie and G. Fink) at 30° C. […] Test and control cultures are inoculated with log-phase cells to provide approximately 10^3 CFU/ml. Cultures are incubated at 30° C. for 20-22 hrs. Cell concentration is determined by taking the OD600.

[16] = target: pBEN (MF) efflux pump in S. cerevisiae YEM-2 (Candida albicans, UniProt P28873); test: cell-based; assay type: cell-based, C. albicans
Chain of pBEN (MF) efflux pump in S. cerevisiae YEM-2 (P28873 whole entry): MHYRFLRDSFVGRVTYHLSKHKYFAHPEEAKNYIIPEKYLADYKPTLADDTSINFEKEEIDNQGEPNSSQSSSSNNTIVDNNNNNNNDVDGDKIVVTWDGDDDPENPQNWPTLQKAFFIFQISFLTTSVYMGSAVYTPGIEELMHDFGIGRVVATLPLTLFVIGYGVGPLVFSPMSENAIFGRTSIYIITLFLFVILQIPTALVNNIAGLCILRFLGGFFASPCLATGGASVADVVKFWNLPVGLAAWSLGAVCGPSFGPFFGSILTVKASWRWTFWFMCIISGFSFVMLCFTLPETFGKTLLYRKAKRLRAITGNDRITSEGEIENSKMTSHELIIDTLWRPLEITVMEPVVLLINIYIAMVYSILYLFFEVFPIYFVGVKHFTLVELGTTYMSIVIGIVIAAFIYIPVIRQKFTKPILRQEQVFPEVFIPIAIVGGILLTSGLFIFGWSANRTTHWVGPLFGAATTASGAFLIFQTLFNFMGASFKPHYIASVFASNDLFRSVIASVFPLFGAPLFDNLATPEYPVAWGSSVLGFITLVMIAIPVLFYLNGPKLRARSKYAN

[17] = test system: YEM 51 C. glabrata wt; test: FEPI MIC with/without 1/8 fluconazole MIC at 24 hrs (Table 11); assay type: cell-based; settings: for MIC of compound in the absence of fluconazole (−): YEM 51, 24 hrs, 80% inhibition
[18] = test system: C. krusei YEM-52 (ATCC 90878), wild type; test: Minimal concentration to reduce fluconazole MIC sixteen-fold (Table 7); assay type: cell-based; settings: YEM-52, wild type
[19] = test system: YEM 53 C. krusei; test: FEPI MIC with/without 1/8 fluconazole MIC at 24 hrs (Table 11); assay type: cell-based; settings: for MIC of compound in the absence of fluconazole (−): YEM 53, 24 hrs, 80% inhibition
[20] = test system: C. albicans YEM-15 (CDR1 & CDR2 overexpressor); test: microbe, parasite or virus in culture; assay type: cell-based; design: MIC Reduction Factor, fluconazole / MIC Reduction Factor, itraconazole / MIC Reduction Factor, ketoconazole / MIC Reduction Factor, terbinafine: unit not given beside the values; settings: for MIC: Candida albicans
[21] = test system: S. cerevisiae YEM-37 overexpressing CDR2 (C. albicans); test: microbe, parasite or virus in culture; assay type: cell-based; design: MIC Reduction Factor, fluconazole: unit not given beside the values; settings: for MIC: Saccharomyces cerevisiae
[22] = read-out: Terbinafine MIC in the presence of FEPImax
[23] = YEM-15, milbemycin α9 at FEPImax
[24] = YEM-37 (CDR2), milbemycin α9 at FEPImax
[25] = YEM-37, milbemycin α9 at FEPImax

CO[C@H]1C[C@@]2(O)/C(CO)=C/C=C/[C@H](C)C/C(C)=C/C[C@@H]3C[C@@H](C[C@]4(CC[C@H](C)[C@@H](C)O4)O3)OC(=O)[C@@H]2C=C1C [Compound 6, Milbemycin β1]
MIC [1]: 8 mg/L (≈ 14.7 µM) | IC50 ([2]; read-out: FEPIhalf (concentration needed to reduce activity of efflux pump by 50%), YEM-39 pCgCDR, fluconazole fixed at FLUhalf 4): 3.67 µM | FEPIhalf (concentration needed to reduce activity of efflux pump by 50%) [3]: 16 | MIC of compound in the presence of fluconazole (+) [4]: > 64 mg/L | MIC of compound in the absence of fluconazole (−) [4]: > 64 mg/L | Minimal concentration required to reduce the MIC of fluconazole by sixteen-fold [5]: 80 mg/L | MIC of compound in the presence of fluconazole (+) [6]: 1 mg/L | MIC of compound in the absence of fluconazole (−) [6]: > 64 mg/L | FEPI MIC with fluconazole, 60% Inh [7]: 2 | FEPI MIC with fluconazole, 80% Inh [7]: >64 | FEPI MIC with itraconazole, 60% Inh [7]: >64 | FEPI MIC with itraconazole, 80% Inh [7]: >64 | FEPI MIC with ketoconazole, 60% Inh [7]: ≦0.063 | FEPI MIC with ketoconazole, 80% Inh [7]: 4 | FEPI MIC (alone) [7]: >64 | MIC of compound in the presence of fluconazole (+) [8]: > 64 mg/L | MIC of compound in the absence of fluconazole (−) [8]: > 64 mg/L | MIC of compound in the presence of fluconazole (+) [9]: ≦0.03 | MIC of compound in the absence of fluconazole (−) [9]: > 64 mg/L | IC50 ([10]; read-out: FEPIhalf (concentration needed to reduce activity of efflux pump by 50%), YEM-37 pCDR2, fluconazole fixed at FLUhalf 1): 3.67 µM | MIC of compound in the presence of fluconazole (+) [11]: ≦0.03 | MIC of compound in the absence of fluconazole (−) [11]: > 64 mg/L | MIC of compound in the presence of fluconazole (+) [12]: 64 mg/L | MIC of compound in the absence of fluconazole (−) [12]: > 64 mg/L | CC50 [13]: 8 µM | IC50 ([14]; read-out: FEPIhalf (concentration needed to reduce activity of efflux pump by 50%), YEM-1 pCDRI, fluconazole fixed at FLUhalf 5.6): 0.918 µM | Inhibition of the CDR1 efflux pump [15]: inhibited the CDR1 efflux pump | IC50 ([16]; read-out: FEPIhalf (concentration needed to reduce activity of efflux pump by 50%), YEM-2 pBEN, fluconazole fixed at FLUhalf 5.6): 29.4 µM | MIC of compound in the presence of fluconazole (+) [17]: 8 mg/L | MIC of compound in the absence of fluconazole (−) [17]: > 64 mg/L | Minimal concentration required to reduce the MIC of fluconazole by sixteen-fold [18]: 1.25 mg/L | MIC of compound in the presence of fluconazole (+) [19]: 8 mg/L | MIC of compound in the absence of fluconazole (−) [19]: > 64 mg/L

C/C1=C\C[C@@H]2C[C@@H](C[C@]3(CC[C@H](C)[C@@H](C)O3)O2)OC(=O)[C@@H]2C=C(COC(=O)c3ccc[nH]3)[C@@H](O)[C@H]3OC/C(=C\C=C\[C@H](C)C1)[C@]32O [Compound 11, Milbemycin α9]
IC50 [2]: 6.27 µM | FEPIhalf (concentration needed to reduce activity of efflux pump by 50%) [3]: >64 | MIC of compound in the presence of fluconazole (+) [4]: > 64 mg/L | MIC of compound in the absence of fluconazole (−) [4]: > 64 mg/L | MIC ([20]; read-out: Milbemycin α9 MIC): > 64 mg/L | MIC [20, 22]: 0.125 mg/L | FEPImax (minimal milbemycin α9 conc. for maximum MIC reduction), fluconazole ([20]; YEM-15): 16 mg/L | FEPImax (minimal milbemycin α9 conc. for maximum MIC reduction), itraconazole ([20]; YEM-15): 1 mg/L | FEPImax (minimal milbemycin α9 conc. for maximum MIC reduction), ketoconazole ([20]; YEM-15): 4 mg/L | FEPImax (minimal milbemycin α9 conc. for maximum MIC reduction), terbinafine ([20]; YEM-15): 4 mg/L | Fluconazole MIC in the presence of FEPImax [20, 23]: 2 mg/L | Itraconazole MIC in the presence of FEPImax [20, 23]: 0.06 mg/L | Ketoconazole MIC in the presence of FEPImax [20, 23]: 0.015 mg/L | MIC Reduction Factor, fluconazole [20, 23]: 64 | MIC Reduction Factor, itraconazole [20, 23]: 8 | MIC Reduction Factor, ketoconazole [20, 23]: 64 | MIC Reduction Factor, terbinafine [20, 23]: 1024 | MIC of compound in the presence of fluconazole (+) [6]: 0.5 mg/L | MIC of compound in the absence of fluconazole (−) [6]: > 64 mg/L | FEPI MIC with fluconazole, 60% Inh [7]: ≦0.063 | FEPI MIC with fluconazole, 80% Inh [7]: 0.5 | FEPI MIC with itraconazole, 60% Inh [7]: 1 | FEPI MIC with itraconazole, 80% Inh [7]: 4 | FEPI MIC with ketoconazole, 60% Inh [7]: 0.125 | FEPI MIC with ketoconazole, 80% Inh [7]: 0.125 | FEPI MIC (alone) [7]: >64 | MIC ([21]; read-out: Milbemycin α9 MIC): > 64 mg/L | MIC [21, 22]: 0.5 mg/L | FEPImax (minimal milbemycin α9 conc. for maximum MIC reduction), fluconazole ([21]; YEM-37 (CDR2)): 1 mg/L | FEPImax (minimal milbemycin α9 conc. for maximum MIC reduction), terbinafine ([21]; YEM-37 (CDR2)): 4 mg/L | Pump inhibition (%), fluconazole [21, 24]: 100% | Pump inhibition (%), terbinafine [21, 24]: 100% | Fluconazole MIC in the presence of FEPImax [21, 25]: 0.5 mg/L | MIC Reduction Factor, fluconazole [21, 25]: 8 | MIC of compound in the presence of fluconazole (+) [8]: > 64 mg/L | MIC of compound in the absence of fluconazole (−) [8]: > 64 mg/L | MIC of compound in the presence of fluconazole (+) [9]: ≦0.03 | MIC of compound in the absence of fluconazole (−) [9]: > 64 mg/L | IC50 [10]: 3.14 µM | MIC of compound in the presence of fluconazole (+) [11]: ≦0.03 | MIC of compound in the absence of fluconazole (−) [11]: > 64 mg/L | MIC of compound in the presence of fluconazole (+) [12]: > 64 mg/L | MIC of compound in the absence of fluconazole (−) [12]: > 64 mg/L | IC50 [14]: < 0.0941 µM | IC50 [16]: > 100 µM | MIC of compound in the presence of fluconazole (+) [17]: 1 mg/L | MIC of compound in the absence of fluconazole (−) [17]: > 64 mg/L | MIC of compound in the presence of fluconazole (+) [19]: ≦0.03 | MIC of compound in the absence of fluconazole (−) [19]: > 64 mg/L

From patent publication US6495591B1, “Fungal efflux pump inhibitors” (Essential Therapeutics, Inc., priority 1997, dated 2002)
